Reference: patent EP0015817A1, “Piperidine derivatives, process for their preparation and their use in therapeutical compositions” (METABIO-JOULLIE Société anonyme:, priority 1979, dated 1980)
Like-named read-outs stand apart in the source and are kept apart here.

What was measured:
duodénum isolé de rat = test: Antispasmodic action: antagonism of barium chloride-induced contraction on isolated rat duodenum (Magnus method); details: for IC50: read-out: Concentrations molaires inhibitrices 50 %
Protocol: Les essais sont effectués sur le duodénum isolé de rat en survie dans du liquide de Tyrode oxygéné et à température de 37°C (cuve de 20 ml, bain- marie à organes isolés type Valette).
Le tonus et les mouvements de l'organe isolé sont enregistrés par la méthode de Magnus (R.) (Arch. Ges. Physiol. 1904, 102; 123) à l'aide d'une jauge de contrainte reliée à un enregistreur électronique Electromed.
L'antagonisme exercé par le produit étudié est recherché vis-à-vis des effets contracturants musculotropes du chlorure de baryum.
La papavérine est utilisée comme substance antagoniste de référence.
On détermine la concentration molaire du produit qui diminue de 50 % les effets du chlorure de baryum.

[1] = Acute toxicity (LD50) in mice; details: mouse, in vivo, souris Swiss NMRI, read-out: DL50 (the source's name)
Protocol: La DL50 a été déterminée chez la souris Swiss NMRI sur le bromhydrate de la benzyloxy-4 pipéridine : - voie orale DL50 75 mg/kg - voie I.V. DL50 32,5 mg/kg

SMILES | IC50 (duodénum isolé de rat; Rattus norvegicus) [µM] | LD50 ([1]; iv, voie I.V.) [mg/kg] | LD50 ([1]; po, voie orale) [mg/kg] | IC50 (duodénum isolé de rat; concentration reducing by 50 % the effects of chlorure de baryum, isolated rat duodenum in oxygenated Tyrode, 37°C) [µM] | activité antispasmodique comparée à celle de la papavérine (duodénum isolé de rat; qualitative comparison with papavérine, chlorure de baryum contraction, isolated rat duodenum)
COc1ccc(Cc2nccc3cc(OC)c(OC)cc23)cc1OC [Papavérine, reference compound] | 12.5 |  |  |  | 
c1ccc(COC2CCNCC2)cc1 [Benzyloxy-4 pipéridine (bromhydrate), Bromhydrate de benzyloxy-4 pipéridine] |  | 32.5 | 75 | 18 | sensiblement égale à celle de la papavérine
